The values below come from patent US20250163104A1, “MACROCYCLIC IMMUNOMODULATORS” (priority 2021, published 2025).

In general, IC50 refers to the point on the concentration scale where inhibition reaches its midpoint.

*1 amine or outer side, *2 acyl side, *3 side chain or, on linkers, in order; H or OH if unused. Where a SMILES comes first, the peptide text is derived from it. Bridges are numbered along the chain shown (N, C = ends). [ ]: non-standard residue; d: D form. The star is where a group is joined. ξ: configuration not given here. Phe(4-COOH) = N[C@@H](Cc1ccc(C(=O)O)cc1)C(=O)O; Bip = N[C@@H](Cc1ccc(-c2ccccc2)cc1)C(=O)O; X7 = CC(=N)NCCC[C@@H](N[*:1])C(=O)[*:2]; Phe(3-Me) = Cc1cccc(C[C@H](N)C(=O)O)c1; hArg = N=C(N)NCCCC[C@H](N)C(=O)O; Cha = N[C@@H](CC1CCCCC1)C(=O)O; Cit = NC(=O)NCCC[C@H](N)C(=O)O; Ile(3ξ) = CCC(C)[C@H](N)C(=O)O; Thr(3ξ) = CC(O)[C@H](N)C(=O)O; Carboxymethyl = O=C(O)C*; Orn = NCCC[C@H](N)C(=O)O; Dab = NCC[C@H](N)C(=O)O; ξV = CC(C)C(N)C(=O)O; ξS = NC(CO)C(=O)O; Sar = CNCC(=O)O

T1 sequence (Q15116 25-288): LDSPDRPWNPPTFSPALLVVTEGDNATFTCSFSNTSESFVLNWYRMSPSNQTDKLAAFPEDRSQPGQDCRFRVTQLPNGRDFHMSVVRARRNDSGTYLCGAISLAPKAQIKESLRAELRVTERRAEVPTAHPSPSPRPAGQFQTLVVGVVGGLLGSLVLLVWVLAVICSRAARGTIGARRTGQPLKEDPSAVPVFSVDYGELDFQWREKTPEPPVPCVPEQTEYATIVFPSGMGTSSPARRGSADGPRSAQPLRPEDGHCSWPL

The first experiment addresses T1, human PD-1 / PD-L1-Ig binding on Jurkat cell line over-expressing human PD-1 (Jurkat-PD-1) (Homo sapiens, UniProt Q15116).
T1 construct: expressed in transfected cells; host or cells: Jurkat
The experiment can be described thus: Jurkat-PD-1 Cell Binding High-Content Screening Assay (CBA). The experiment is classed as cell-based. The note with it: Jurkat HPD1_PDL1 IC50, Jurkat-PD-1 cells, PE-labeled PD-L1-Ig 20 nM final. The method in brief:
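Jurkat cells over-expressing human PD-1, in DMEM/10% FCS, pre-incubated with compound 2 h at 37° C. PE-labeled human PD-L1-Ig (20 nM final) added for 1 h; cells fixed in paraformaldehyde with Hoechst 33342 nuclear stain, washed, and bound fluorescence quantified by high-content imaging.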
Turning to `CC(C)C[C@H]1NC(=O)[C@H](CCCN)NC(=O)[C@H](C(C)C)NC(=O)[C@H](Cc2ccc(-c3ccccc3)cc2)NC(=O)[C@H](C(C)C)NC(=O)[C@H](Cc2c[nH]c3ccccc23)NC(=O)[C@H](CC(=O)O)NC(=O)[C@H](Cc2ccc(C(=O)O)cc2)NC(=O)[C@H](Cc2ccc(OCC(=O)O)cc2)NC(=O)CSC[C@@H](C(=O)N[C@@H](CCN)C(=O)N[C@@H](CCCNC(=N)N)C(=O)O)NC(=O)[C@H](CO)NC(=O)[C@H](C(C)C)NC(=O)[C@H](CC2CCCCC2)NC(=O)[C@H](CCN)NC1=O` [Compound 2586] ({CH2CO}-Y(Carboxymethyl)[Phe(4-COOH)]DWV[Bip]V[Orn][dL][Dab][Cha]VSC[Dab]R-OH; thioether N-14), the 50% inhibitory concentration (IC50) worked out at 10 nM.

`CC(C)C[C@H]1NC(=O)[C@H](CCCN)NC(=O)[C@H](C(C)C)NC(=O)[C@H](Cc2ccc(-c3ccccc3)cc2)NC(=O)[C@H](C(C)C)NC(=O)[C@H](Cc2c[nH]c3ccccc23)NC(=O)[C@H](CC(=O)O)NC(=O)[C@H](Cc2ccc(C(=O)O)cc2)NC(=O)[C@H](Cc2ccc(OCC(=O)O)cc2)NC(=O)CSC[C@@H](C(=O)N[C@@H](CCN)C(=O)N[C@@H](CCCNC(=N)N)C(=O)O)NC(=O)[C@H](CCCN)NC(=O)[C@H](C(C)C)NC(=O)[C@H](CC2CCCCC2)NC(=O)[C@H](CCN)NC1=O` [Compound 2587] ({CH2CO}-Y(Carboxymethyl)[Phe(4-COOH)]DWV[Bip]V[Orn][dL][Dab][Cha]V[Orn]C[Dab]R-OH; thioether N-14) came in with a concentration for half-maximal inhibition (IC50) of 18.4 nM.

The same experiment, now with this note: Jurkat-PD-1 cells, PE-labeled PD-L1-Ig 20 nM final; read-out: Jurkat HPD1_PDL1 IC50.
Consider `CC(=N)NCCC[C@@H](NC(=O)[C@@H]1CSCC(=O)N[C@@H](Cc2ccc(OCC(=O)O)cc2)C(=O)N[C@@H](Cc2ccc(C(=O)O)cc2)C(=O)N[C@@H](CC(=O)O)C(=O)N[C@@H](Cc2cccc(C)c2)C(=O)N[C@@H](C(C)C)C(=O)N[C@@H](Cc2ccc(-c3ccccc3)cc2)C(=O)N[C@@H](C(C)C)C(=O)N[C@@H](CCN)C(=O)N[C@H](CC(C)C)C(=O)N[C@@H](CCN)C(=O)N[C@@H](CC2CCCCC2)C(=O)N[C@@H](C(C)C)C(=O)N[C@@H](CCCN)C(=O)N1)C(=O)O` [Compound 2588] ({CH2CO}-Y(Carboxymethyl)[Phe(4-COOH)]D[Phe(3-Me)]V[Bip]V[Dab][dL][Dab][Cha]V[Orn]C[X7]-OH; thioether N-14), for which the IC50 is 10.1 nM.

With `Cc1cccc(C[C@@H]2NC(=O)[C@H](CC(=O)O)NC(=O)[C@H](Cc3ccc(C(=O)O)cc3)NC(=O)[C@H](Cc3ccc(OCC(=O)O)cc3)NC(=O)CSC[C@@H](C(=O)N[C@H](Cc3ccc(O)cc3)C(=O)O)NC(=O)[C@H](CCCN)NC(=O)[C@H](C(C)C)NC(=O)[C@H](CC3CCCCC3)NC(=O)[C@H](CCN)NC(=O)[C@@H](CC(C)C)NC(=O)[C@H](CCN)NC(=O)[C@H](C(C)C)NC(=O)[C@H](Cc3ccc(-c4ccccc4)cc3)NC(=O)[C@H](C(C)C)NC2=O)c1` [Compound 2589] ({CH2CO}-Y(Carboxymethyl)[Phe(4-COOH)]D[Phe(3-Me)]V[Bip]V[Dab][dL][Dab][Cha]V[Orn]C[dY]-OH; thioether N-14), the IC50 turned out to be 34.3 nM.

As to `Cc1cccc(C[C@@H]2NC(=O)[C@H](CC(=O)O)NC(=O)[C@H](Cc3ccc(C(=O)O)cc3)NC(=O)[C@H](Cc3ccc(OCC(=O)O)cc3)NC(=O)CSC[C@@H](C(=O)N[C@H](CCC(=O)O)C(=O)O)NC(=O)[C@H](CCCN)NC(=O)[C@H](C(C)C)NC(=O)[C@H](CC3CCCCC3)NC(=O)[C@H](CCN)NC(=O)[C@@H](CC(C)C)NC(=O)[C@H](CCN)NC(=O)[C@H](C(C)C)NC(=O)[C@H](Cc3ccc(-c4ccccc4)cc3)NC(=O)[C@H](C(C)C)NC2=O)c1` [Compound 2590] ({CH2CO}-Y(Carboxymethyl)[Phe(4-COOH)]D[Phe(3-Me)]V[Bip]V[Dab][dL][Dab][Cha]V[Orn]C[dE]-OH; thioether N-14), the IC50 was determined as 30.2 nM.

In the case of `Cc1cccc(C[C@@H]2NC(=O)[C@H](CC(=O)O)NC(=O)[C@H](Cc3ccc(OCC(=O)O)cc3)NC(=O)[C@H](CCCCNC(=N)N)NC(=O)CSC[C@@H](C(=O)N[C@@H](CCCN)C(=O)NC(CO)C(N)=O)NC(=O)[C@H](CO)NC(=O)C(C(C)C)NC(=O)[C@H](CC3CCCCC3)NC(=O)[C@H](CCN)NC(=O)[C@@H](CC(C)C)NC(=O)[C@H](CCCN)NC(=O)[C@H](CCCNC(N)=O)NC(=O)[C@H](Cc3ccc(-c4ccccc4)cc3)NC(=O)[C@H](C(C)C)NC2=O)c1` (stereo partly drawn) [Compound 2592] ({CH2CO}-[hArg]Y(Carboxymethyl)D[Phe(3-Me)]V[Bip][Cit][Orn][dL][Dab][Cha][ξV]SC[Orn][ξS]-NH2; thioether N-14), the half-inhibitory concentration (IC50) was found to be 15.3 nM.

For `Cc1cccc(C[C@@H]2NC(=O)[C@H](CC(=O)O)NC(=O)[C@H](Cc3ccc(OCC(=O)O)cc3)NC(=O)[C@H](CCCCNC(=N)N)NC(=O)CSC[C@@H](C(=O)N[C@@H](CO)C(=O)N[C@@H](CCCCN)C(N)=O)NC(=O)[C@H](CO)NC(=O)[C@H](C(C)C)NC(=O)[C@H](CC3CCCCC3)NC(=O)[C@H](CCN)NC(=O)[C@@H](CC(C)C)NC(=O)[C@H](CCCN)NC(=O)[C@H](CCCNC(N)=O)NC(=O)[C@H](Cc3ccc(-c4ccccc4)cc3)NC(=O)[C@H](C(C)C)NC2=O)c1` [Compound 2593] ({CH2CO}-[hArg]Y(Carboxymethyl)D[Phe(3-Me)]V[Bip][Cit][Orn][dL][Dab][Cha]VSCSK-NH2; thioether N-14), the half-maximal inhibitory concentration (IC50) amounted to 3.9 nM.

Consider `Cc1cccc(C[C@@H]2NC(=O)[C@H](CC(=O)O)NC(=O)[C@H](Cc3ccc(OCC(=O)O)cc3)NC(=O)[C@H](CCCCNC(=N)N)NC(=O)CSC[C@@H](C(=O)N[C@@H](CCCCN)C(=O)N[C@@H](CO)C(N)=O)NC(=O)[C@H](CO)NC(=O)[C@H](C(C)C)NC(=O)[C@H](CC3CCCCC3)NC(=O)[C@H](CCN)NC(=O)[C@@H](CC(C)C)NC(=O)[C@H](CCCN)NC(=O)[C@H](CCCNC(N)=O)NC(=O)[C@H](Cc3ccc(-c4ccccc4)cc3)NC(=O)[C@H](C(C)C)NC2=O)c1` [Compound 2594] ({CH2CO}-[hArg]Y(Carboxymethyl)D[Phe(3-Me)]V[Bip][Cit][Orn][dL][Dab][Cha]VSCKS-NH2; thioether N-14), for which the concentration for half-maximal inhibition (IC50) is 13.1 nM.

In the case of `CC(=O)NCCCC[C@@H]1NC(=O)CSC[C@@H](C(=O)N[C@@H](CO)C(N)=O)NC(=O)[C@H](C(C)O)NC(=O)[C@H](C(C)C)NC(=O)[C@H](CC2CCCCC2)NC(=O)[C@H](CCN)NC(=O)[C@@H](CC(C)C)NC(=O)[C@H](CCCN)NC(=O)[C@H](CCCNC(N)=O)NC(=O)[C@H](Cc2ccc(-c3ccccc3)cc2)NC(=O)[C@H](C(C)C)NC(=O)[C@H](Cc2cccc(C)c2)NC(=O)[C@H](CC(=O)O)NC(=O)[C@H](Cc2ccc(OCC(=O)O)cc2)NC1=O` (stereo partly drawn) [Compound 2595] ({CH2CO}-K(Ac)Y(Carboxymethyl)D[Phe(3-Me)]V[Bip][Cit][Orn][dL][Dab][Cha]V[Thr(3ξ)]CS-NH2; thioether N-14), the IC50 was found to be 9.9 nM.

On to `Cc1cccc(C[C@@H]2NC(=O)[C@H](CC(=O)O)NC(=O)[C@H](Cc3ccc(OCC(=O)O)cc3)NC(=O)[C@H](CCCNC(=N)N)NC(=O)CSC[C@@H](C(=O)N[C@@H](CO)C(N)=O)NC(=O)[C@H](CO)NC(=O)[C@H](C(C)C)NC(=O)[C@H](CC3CCCCC3)NC(=O)[C@H](CCCNC(=N)N)NC(=O)[C@@H](CC(C)C)NC(=O)[C@H](CCCN)NC(=O)[C@H](CCCNC(N)=O)NC(=O)[C@H](Cc3ccc(-c4ccccc4)cc3)NC(=O)[C@H](C(C)C)NC2=O)c1` [Compound 2597] ({CH2CO}-RY(Carboxymethyl)D[Phe(3-Me)]V[Bip][Cit][Orn][dL]R[Cha]VSCS-NH2; thioether N-14), for which the concentration for half-maximal inhibition (IC50) amounted to 12.9 nM.

Regarding `Cc1cccc(C[C@@H]2NC(=O)[C@H](CC(=O)O)NC(=O)[C@H](Cc3ccc(OCC(=O)O)cc3)NC(=O)[C@H](CCCNC(=N)N)NC(=O)CSC[C@@H](C(=O)N[C@@H](CO)C(N)=O)NC(=O)[C@H](CO)NC(=O)[C@H](C(C)O)NC(=O)[C@H](CC3CCCCC3)NC(=O)[C@H](CCN)NC(=O)[C@@H](CC(C)C)NC(=O)[C@H](CCCN)NC(=O)[C@H](CCCNC(N)=O)NC(=O)[C@H](Cc3ccc(-c4ccccc4)cc3)NC(=O)[C@H](C(C)C)NC2=O)c1` (stereo partly drawn) [Compound 2598] ({CH2CO}-RY(Carboxymethyl)D[Phe(3-Me)]V[Bip][Cit][Orn][dL][Dab][Cha][Thr(3ξ)]SCS-NH2; thioether N-14), the half-maximal inhibitory concentration (IC50) worked out at 14 nM.

Staying with this experiment, now noted: read-out: Jurkat HPD1_PDL1 IC50; Jurkat-PD-1 cells, PE-labeled PD-L1-Ig 20 nM final.
Regarding `CCC(C)[C@@H]1NC(=O)[C@H](CC2CCCCC2)NC(=O)[C@H](CCN)NC(=O)[C@@H](CC(C)C)NC(=O)[C@H](CCCN)NC(=O)[C@H](C(C)CC)NC(=O)[C@H](Cc2ccc(-c3ccccc3)cc2)NC(=O)[C@H](C(C)CC)NC(=O)[C@H](Cc2c[nH]c3ccccc23)NC(=O)[C@H](CC(=O)O)NC(=O)[C@H](Cc2ccc(OCC(=O)O)cc2)NC(=O)[C@H](C(C)O)NC(=O)CSC[C@@H](C(=O)N2CCC[C@H]2C(N)=O)NC(=O)[C@H](CO)NC1=O` (stereo partly drawn) [Compound 2583] ({CH2CO}-[Thr(3ξ)]Y(Carboxymethyl)DW[Ile(3ξ)][Bip][Ile(3ξ)][Orn][dL][Dab][Cha][Ile(3ξ)]SCP-NH2; thioether N-14), the IC50 was found to be 122 nM.

In the case of `CCC(C)[C@@H]1NC(=O)[C@H](CC2CCCCC2)NC(=O)[C@H](CCN)NC(=O)[C@@H](CC(C)C)NC(=O)[C@H](CCCN)NC(=O)[C@H](C(C)CC)NC(=O)[C@H](Cc2ccc(-c3ccccc3)cc2)NC(=O)[C@H](C(C)CC)NC(=O)[C@H](Cc2c[nH]c3ccccc23)NC(=O)[C@H](CC(=O)O)NC(=O)[C@H](Cc2ccc(OCC(=O)O)cc2)NC(=O)[C@H](C(C)O)NC(=O)CSC[C@@H](C(=O)N(C)CC(N)=O)NC(=O)[C@H](CO)NC1=O` (stereo partly drawn) [Compound 2584] ({CH2CO}-[Thr(3ξ)]Y(Carboxymethyl)DW[Ile(3ξ)][Bip][Ile(3ξ)][Orn][dL][Dab][Cha][Ile(3ξ)]SC[Sar]-NH2; thioether N-14), the IC50 stood at 97 nM.
